Measurements: patent US9951065B2 (Gilead Sciences, Inc., priority 2015, dated 2018)

Target: T1, IDO1 (Homo sapiens, UniProt P14902)
T1 construct: HeLa cells were treated with a test compound in the presence of IFNγ, which induces IDO1 expression; host or cells: H1-HeLa cells, IDO1 induced with IFNγ
Assay: Cell-based (HeLa) assay for measurement of IDO1 inhibition (kynurenine levels in supernatant after IFNγ induction)
Conditions: HeLa cells, IFNγ-induced IDO1, kynurenine in supernatant after 48 hour incubation; geometric mean of a minimum of four determinations
Method in brief: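 HeLa cells, 1,250 per well, treated with compound (0.5% DMSO final) plus IFNγ to induce IDO1, for 48 h. Supernatant kynurenine measured by TCA hydrolysis at 60 °C, then p-dimethylaminobenzaldehyde, absorbance 480 nm. EC50 from a four-parameter fit normalized to −/+IFNγ controls; geometric mean of at least four runs.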

T1 sequence (P14902 whole entry): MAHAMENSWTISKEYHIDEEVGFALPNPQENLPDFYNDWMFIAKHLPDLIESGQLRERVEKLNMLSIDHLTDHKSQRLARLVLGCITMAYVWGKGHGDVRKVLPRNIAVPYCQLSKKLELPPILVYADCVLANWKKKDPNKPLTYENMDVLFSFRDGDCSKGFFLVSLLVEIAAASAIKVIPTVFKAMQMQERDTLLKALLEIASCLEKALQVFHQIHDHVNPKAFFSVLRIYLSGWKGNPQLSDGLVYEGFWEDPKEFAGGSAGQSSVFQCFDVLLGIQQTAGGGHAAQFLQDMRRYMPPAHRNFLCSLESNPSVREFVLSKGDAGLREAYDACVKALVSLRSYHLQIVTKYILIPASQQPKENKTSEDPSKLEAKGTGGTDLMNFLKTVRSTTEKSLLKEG

EC50	Structure (SMILES)
2870 nM	CN1CCCCC(Nc2nc3nccc(/C(=N/O)Nc4ccc(F)c(Cl)c4)c3[nH]2)C1 (centres unmarked) [Example 217, N-(3-chloro-4-fluorophenyl)-N′-hydroxy-2-((1-methylazepan-3-yl)amino)-1H-imidazo[4,5-b]pyridine-7-carboximidamide]
3860 nM	CC(O)c1nc2nccc(/C(=N/O)Nc3ccc(F)c(Cl)c3)c2[nH]1 (centres unmarked) [Example 172, N-(3-Chloro-4-fluorophenyl)-N′-hydroxy-2-(1-hydroxyethyl)-1H-imidazo[4,5-b]pyridine-7-carboximidamide]
1410 nM	O=S(=O)(NCc1nc2nccc(/C(=N/O)Nc3ccc(F)c(Cl)c3)c2[nH]1)c1ccccc1 [Example 180, N-(3-Chloro-4-fluorophenyl)-N′-hydroxy-2-(phenylsulfonamidomethyl)-1H-imidazo[4,5-b]pyridine-7-carboximidamide]
2190 nM	O/N=C(\Nc1ccc(F)c(Cl)c1)c1ccnc2nc(NCC(F)F)[nH]c12 [Example 225, N-(3-chloro-4-fluorophenyl)-2-((2,2-difluoroethyl)amino)-N′-hydroxy-1H-imidazo[4,5-b]pyridine-7-carboximidamide]
2580 nM	O/N=C(\Nc1ccc(F)c(Cl)c1)c1ccnc2nc(CNCC3CCCOC3)[nH]c12 (centres unmarked) [Example 129, N-(3-Chloro-4-fluorophenyl)-N′-hydroxy-2-((((tetrahydro-2H-pyran-3-yl)methyl)amino)methyl)-1H-imidazo[4,5-b]pyridine-7-carboximidamide]
9530 nM	O/N=C(\Nc1ccc(F)c(Cl)c1)c1ccnc2nc(CN3CCOCC3)[nH]c12 [Example 112, N-(3-Chloro-4-fluorophenyl)-N′-hydroxy-2-(morpholinomethyl)-1H-imidazo[4,5-b]pyridine-7-carboximidamide]
798 nM	O/N=C(\Nc1ccc(F)c(Cl)c1)c1ccnc2nc(NC3CCC3)[nH]c12 [Example 164, N-(3-Chloro-4-fluorophenyl)-2-(cyclobutylamino)-N′-hydroxy-1H-imidazo[4,5-b]pyridine-7-carboximidamide]
2810 nM	O/N=C(\Nc1ccc(F)c(Cl)c1)c1ccnc2nc(CNCc3ncccn3)[nH]c12 [Example 130, N-(3-Chloro-4-fluorophenyl)-N′-hydroxy-2-(((pyrimidin-2-ylmethyl)amino)methyl)-1H-imidazo[4,5-b]pyridine-7-carboximidamide]
3190 nM	CCc1nc2nccc(/C(=N/O)Nc3ccc(F)c(Cl)c3)c2[nH]1 [Example 108, N-(3-Chloro-4-fluorophenyl)-2-ethyl-N′-hydroxy-1H-imidazo[4,5-b]pyridine-7-carboximidamide]
576 nM	O/N=C(\Nc1ccc(F)c(Cl)c1)c1ccnc2nc(CCN3CC4CCC(C4)C3)[nH]c12 [Example 277, 2-(2-(3-azabicyclo[3.2.1]octan-3-yl)ethyl)-N-(3-chloro-4-fluorophenyl)-N′-hydroxy-1H-imidazo[4,5-b]pyridine-7-carboximidamide]
3990 nM	O/N=C(\Nc1ccc(F)c(Cl)c1)c1ccnc2nc(CNCc3cnccn3)[nH]c12 [Example 134, N-(3-Chloro-4-fluorophenyl)-N′-hydroxy-2-(((pyrazin-2-ylmethyl)amino)methyl)-1H-imidazo[4,5-b]pyridine-7-carboximidamide]
457 nM	CCNCc1nc2c(/C(=N/O)Nc3ccc(F)c(Cl)c3)cc(F)c(F)c2[nH]1 [Example 50, N-(3-Chloro-4-fluorophenyl)-2-((ethylamino)methyl)-6,7-difluoro-N′-hydroxy-1H-benzo[d]imidazole-4-carboximidamide]
3400 nM	CN(CCc1nc2nccc(/C(=N/O)Nc3ccc(F)c(Cl)c3)c2[nH]1)CC(F)F [Example 187, N-(3-Chloro-4-fluorophenyl)-2-(2-((2,2-difluoroethyl)(methyl)amino)ethyl)-N′-hydroxy-1H-imidazo[4,5-b]pyridine-7-carboximidamide]
2360 nM	O/N=C(\Nc1ccc(F)c(Cl)c1)c1ccnc2nc(CNCC3CCCCO3)[nH]c12 (centres unmarked) [Example 127, N-(3-Chloro-4-fluorophenyl)-N′-hydroxy-2-((((tetrahydro-2H-pyran-2-yl)methyl)amino)methyl)-1H-imidazo[4,5-b]pyridine-7-carboximidamide]
4820 nM	O=C1CCCN1CCNc1nc2nccc(/C(=N/O)Nc3ccc(F)c(Cl)c3)c2[nH]1 [Example 235, N-(3-chloro-4-fluorophenyl)-N′-hydroxy-2-((2-(2-oxopyrrolidin-1-yl)ethyl)amino)-1H-imidazo[4,5-b]pyridine-7-carboximidamide]
602 nM	O/N=C(\Nc1cccc(Cl)c1)c1ccnc2nc(CCN3CCCCC3)[nH]c12 [Example 271, N-(3-chlorophenyl)-N′-hydroxy-2-(2-(piperidin-1-yl)ethyl)-1H-imidazo[4,5-b]pyridine-7-carboximidamide]
1780 nM	NCCc1nc2nccc(/C(=N/O)Nc3ccc(F)c(Cl)c3)c2[nH]1 [Example 189, 2-(2-Aminoethyl)-N-(3-chloro-4-fluorophenyl)-N′-hydroxy-1H-imidazo[4,5-b]pyridine-7-carboximidamide]
813 nM	O/N=C(\Nc1ccc(F)c(Cl)c1F)c1ccnc2nc[nH]c12 [Example 64, N-(3-Chloro-2,4-difluorophenyl)-N′-hydroxy-1H-imidazo[4,5-b]pyridine-7-carboximidamide]
473 nM	CN(C)CCCNc1nc2c(F)c(F)cc(/C(=N/O)Nc3ccc(F)c(Cl)c3)c2[nH]1 [Example 39, N-(3-Chloro-4-fluorophenyl)-2-((3-(dimethylamino)propyl)amino)-4,5-difluoro-N′-hydroxy-1H-benzo[d]imidazole-7-carboximidamide]
371 nM	O/N=C(\Nc1cc(Br)c(F)cc1F)c1ccnc2nc[nH]c12 [Example 61, N-(5-Bromo-2,4-difluorophenyl)-N′-hydroxy-1H-imidazo[4,5-b]pyridine-7-carboximidamide]

Same assay, conditions: HeLa cells, IFNγ-induced IDO1, kynurenine in supernatant, 48 hour incubation; geometric mean of a minimum of four determinations

EC50	Structure (SMILES)
2020 nM	CN(C)C(CNc1nc2c(F)c(F)cc(/C(=N/O)Nc3ccc(F)c(Cl)c3)c2[nH]1)c1ccccc1 (centres unmarked) [Example 436, N-(3-chloro-4-fluorophenyl)-2-((2-(dimethylamino)-2-phenylethyl)amino)-4,5-difluoro-N′-hydroxy-1H-benzo[d]imidazole-7-carboximidamide]
1790 nM	CN(CCc1nc2nccc(/C(=N/O)Nc3ccc(F)c(Cl)c3)c2[nH]1)C1CCCCC1 [Example 393, N-(3-chloro-4-fluorophenyl)-2-(2-(cyclohexyl(methyl)amino)ethyl)-N′-hydroxy-1H-imidazo[4,5-b]pyridine-7-carboximidamide]
3570 nM	O/N=C(\Nc1ccc(F)c(Cl)c1)c1cc(F)c(F)c2nc(NCCn3cccn3)[nH]c12 [Example 300, 2-((2-(1H-pyrazol-1-yl)ethyl)amino)-N-(3-chloro-4-fluorophenyl)-4,5-difluoro-N′-hydroxy-1H-benzo[d]imidazole-7-carboximidamide]
205 nM	CN1CCCCC(Nc2nc3c(F)c(F)cc(/C(=N/O)Nc4ccc(F)c(Cl)c4)c3[nH]2)C1 (centres unmarked) [Example 451, N-(3-chloro-4-fluorophenyl)-4,5-difluoro-N′-hydroxy-2-((1-methylazepan-3-yl)amino)-1H-benzo[d]imidazole-7-carboximidamide]
253 nM	CN(C)CCNc1nc2c(F)c(F)cc(/C(=N/O)Nc3ccc(F)c(Br)c3)c2[nH]1 [Example 432, N-(3-bromo-4-fluorophenyl)-2-((2-(dimethylamino)ethyl)amino)-4,5-difluoro-N′-hydroxy-1H-benzo[d]imidazole-7-carboximidamide]
1520 nM	O/N=C(\Nc1ccc(F)c(Cl)c1)c1cc(F)c(F)c2nc(NC3CNCCOC3)[nH]c12 (centres unmarked) [Example 477, 2-((1,4-oxazepan-6-yl)amino)-N-(3-chloro-4-fluorophenyl)-4,5-difluoro-N′-hydroxy-1H-benzo[d]imidazole-7-carboximidamide]
566 nM	CC1CN(C(C)(C)CNc2nc3nccc(/C(=N/O)Nc4ccc(F)c(Cl)c4)c3[nH]2)CC(C)O1 (centres unmarked) [Example 484, N-(3-chloro-4-fluorophenyl)-2-((2-(2,6-dimethylmorpholino)-2-methylpropyl)amino)-N′-hydroxy-1H-imidazo[4,5-b]pyridine-7-carboximidamide]
3260 nM	CN1CCOC(CNc2nc3c(F)c(F)cc(/C(=N/O)Nc4ccc(F)c(Cl)c4)c3[nH]2)C1 (centres unmarked) [Example 356, N-(3-chloro-4-fluorophenyl)-4,5-difluoro-N′-hydroxy-2-(((4-methylmorpholin-2-yl)methyl)amino)-1H-benzo[d]imidazole-7-carboximidamide]
561 nM	O/N=C(\Nc1ccc(F)c(Cl)c1)c1ccnc2nc(NCCNC3CC3)[nH]c12 [Example 402, N-(3-chloro-4-fluorophenyl)-2-((2-(cyclopropylamino)ethyl)amino)-N′-hydroxy-1H-imidazo[4,5-b]pyridine-7-carboximidamide]
939 nM	CN(C)CCCNc1nc2c(F)ccc(/C(=N/O)Nc3ccc(F)c(Cl)c3)c2[nH]1 [Example 388, N-(3-chloro-4-fluorophenyl)-2-((3-(dimethylamino)propyl)amino)-4-fluoro-N′-hydroxy-1H-benzo[d]imidazole-7-carboximidamide]
1260 nM	O/N=C(\Nc1ccc(F)c(Cl)c1)c1ccc(F)c2nc(NCCN3CCCC3)[nH]c12 [Example 376, N-(3-chloro-4-fluorophenyl)-4-fluoro-N′-hydroxy-2-((2-(pyrrolidin-1-yl)ethyl)amino)-1H-benzo[d]imidazole-7-carboximidamide]
2120 nM	OCCN(CCNc1nc2nccc(/C(=N/O)Nc3ccc(F)c(Cl)c3)c2[nH]1)C1CC1 [Example 407, N-(3-chloro-4-fluorophenyl)-2-((2-(cyclopropyl(2-hydroxyethyl)amino)ethyl)amino)-N′-hydroxy-1H-imidazo[4,5-b]pyridine-7-carboximidamide]
